The source of these data is ChEMBL document CHEMBL1122919, “Substituted 2-pyrones, 2-pyridones, and other congeners of elasnin as potential agents for the treatment of chronic obstructive lung diseases” (J Med Chem, 1985).

Broadly, the IC50 is the concentration that inhibits the measured activity by half.

Molecules are shown by their SMILES.

One assay addresses T1, Neutrophil elastase (Homo sapiens, UniProt P08246).
T1 sequence (P08246 whole entry): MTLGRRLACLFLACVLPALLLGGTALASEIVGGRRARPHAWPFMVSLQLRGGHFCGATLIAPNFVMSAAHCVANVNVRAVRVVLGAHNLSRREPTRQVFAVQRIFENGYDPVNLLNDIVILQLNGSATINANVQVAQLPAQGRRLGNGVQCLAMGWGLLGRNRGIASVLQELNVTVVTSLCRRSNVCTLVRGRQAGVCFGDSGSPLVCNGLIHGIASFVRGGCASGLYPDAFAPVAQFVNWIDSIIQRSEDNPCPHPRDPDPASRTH
Put plainly: Inhibitory activity was evaluated against human leukocyte elastase.
With `CCCCCCCCCCCCCCCC(=O)c1c(O)cc(C)oc1=O`, the IC50 was determined as 35.8 µM.
Still for that read-out and setting: in the case of `CCCCCCC(CCCC)c1cc(O)cc(=O)o1` (stereo not drawn) it was 1620 µM; in that of `CCCCCCCCCCCc1cc(O)cc(=O)[nH]1`, 153 µM; in that of `CCCCCCCCCCCc1cc(O)cc(=O)o1`, 3150 µM.
`CCCCCCCCCCCC(=O)c1c(O)cc(C)oc1=O` yielded an IC50 of 26.8 µM.

The target of the next assay is T1, Neutrophil elastase. Put plainly: Inhibitory activity was evaluated against human leukocyte elastase; Inactive.
Turning to `CCCc1cc(O)cc(=O)o1`, the IC50 entry was “Not Active”.
The same measure, in the same setting: in the case of `CCCCc1cc(O)cc(=O)o1` it was “Not Active”; in that of `CCCCCCCc1cc(O)cc(O)n1`, “Not Active”.
Still for that read-out and setting: in the case of `CCCC(=O)c1c(O)cc(C)oc1=O` it was “Not Active”; in that of `CCC(=O)c1c(O)cc(C)oc1=O`, “Not Active”.
Still for that read-out and setting: in the case of `CCCCCCCc1cc(O)cc(=O)o1` it was “Not Active”; in that of `CCCCCC(=O)c1c(O)cc(C)oc1=O`, “Not Active”; in that of `CCCCCc1cc(O)cc(=O)o1`, “Not Active”.
